From ChEMBL document CHEMBL2057176, “Synthesis and in vitro evaluation of [18F](R)-FEPAQ: a potential PET ligand for VEGFR2” (Bioorg Med Chem Lett, 2012)
The source made the active and inactive calls. The calls are words filed in the database; no cut-off is given here.

Assays:
[1] = target: T1, Vascular endothelial growth factor receptor 2 (Homo sapiens, UniProt P35968); test: Binding affinity to VEGFR2 in isolated human glioblastoma at 0.18 nM after 60 mins by phosphor image autoradiographic analysis; conditions: tested as the 18F-labelled form
[2] = target: T1, Vascular endothelial growth factor receptor 2; test: Binding affinity to VEGFR2 in isolated human glioblastoma at 0.18 nM after 60 mins by phosphor image autoradiographic analysis in presence of (R)-PAQ; conditions: tested as the 18F-labelled form
[3] = target: T1, Vascular endothelial growth factor receptor 2; test: Inhibition of human VEGFR2 by fluorescence-based electrophoretic mobility-shift assay
[4] = target: T1, Vascular endothelial growth factor receptor 2; test: Binding affinity to VEGFR2 in isolated human glioblastoma at 0.18 nM after 60 mins by phosphor image autoradiographic analysis in presence of ZM-323881; conditions: tested as the 18F-labelled form

T1 sequence (P35968 whole entry): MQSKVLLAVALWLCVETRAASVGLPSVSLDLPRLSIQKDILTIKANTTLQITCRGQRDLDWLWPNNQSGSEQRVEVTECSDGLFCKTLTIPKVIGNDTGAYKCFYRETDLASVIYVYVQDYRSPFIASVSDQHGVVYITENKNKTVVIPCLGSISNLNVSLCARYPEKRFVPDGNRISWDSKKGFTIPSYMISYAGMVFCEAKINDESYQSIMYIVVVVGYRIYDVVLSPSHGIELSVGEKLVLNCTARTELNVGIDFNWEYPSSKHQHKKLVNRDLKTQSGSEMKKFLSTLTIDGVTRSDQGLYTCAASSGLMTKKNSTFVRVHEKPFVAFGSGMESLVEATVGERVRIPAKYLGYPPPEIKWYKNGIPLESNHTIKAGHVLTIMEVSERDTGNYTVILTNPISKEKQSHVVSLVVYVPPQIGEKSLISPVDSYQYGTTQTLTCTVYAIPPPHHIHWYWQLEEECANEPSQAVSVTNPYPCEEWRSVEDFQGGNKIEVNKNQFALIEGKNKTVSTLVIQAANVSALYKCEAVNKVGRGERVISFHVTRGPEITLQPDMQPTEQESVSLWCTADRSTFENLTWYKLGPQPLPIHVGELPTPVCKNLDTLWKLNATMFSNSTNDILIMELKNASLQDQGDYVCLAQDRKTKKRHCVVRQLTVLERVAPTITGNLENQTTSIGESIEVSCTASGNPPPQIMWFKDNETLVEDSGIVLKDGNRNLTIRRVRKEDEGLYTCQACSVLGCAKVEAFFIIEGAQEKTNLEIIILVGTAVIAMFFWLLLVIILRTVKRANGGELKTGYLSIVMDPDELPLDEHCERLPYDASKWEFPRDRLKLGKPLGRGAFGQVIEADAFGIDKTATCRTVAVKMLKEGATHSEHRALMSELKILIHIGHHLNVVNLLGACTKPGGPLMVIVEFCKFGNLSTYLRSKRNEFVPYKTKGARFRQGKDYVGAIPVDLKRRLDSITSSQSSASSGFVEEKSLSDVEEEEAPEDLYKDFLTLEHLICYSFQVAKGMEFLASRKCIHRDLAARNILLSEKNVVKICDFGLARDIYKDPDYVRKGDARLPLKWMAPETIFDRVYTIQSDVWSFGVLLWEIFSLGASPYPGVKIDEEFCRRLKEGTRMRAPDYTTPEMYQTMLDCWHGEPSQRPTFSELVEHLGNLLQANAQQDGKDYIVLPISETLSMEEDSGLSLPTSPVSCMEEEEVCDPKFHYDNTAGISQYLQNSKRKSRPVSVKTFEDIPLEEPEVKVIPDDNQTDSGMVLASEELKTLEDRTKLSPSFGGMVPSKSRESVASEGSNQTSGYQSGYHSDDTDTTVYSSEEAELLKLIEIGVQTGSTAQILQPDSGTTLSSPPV

## COc1cc2c(Nc3ccc(Br)cc3F)ncnc2cc1OC[C@@H]1CCCN(CCF)C1
[1]
  Activity: Active
[2]
  Activity: inactive
[3]
  IC50: 40 nM
[4]
  Activity: inactive
